Calls of active or inactive are those of the source. No cut-off for these calls is given here.

In general, solubility refers to how much of the substance goes into solution per volume.

The test system of data set [1] is SH-SY5Y. The experiment in a line: Neuroprotective activity against serum starvation-induced cell death in human SH-SY5Y cells assessed as increase in cell viability at 10 and 20 uM after 3 days by tetrazolium reduction assay. Type of data set: functional, cell-based.
Data set [2] in a line: Solubility of the compound. The class given is physicochemical.
The test system of data set [3] is SH-SY5Y. Briefly: Neuroprotective activity against serum starvation-induced cell death in human SH-SY5Y cells assessed as increase in cell viability at 20 and 40 uM after 3 days by tetrazolium reduction assay. The class given is functional, cell-based.
The test system of data set [4] is SH-SY5Y. Briefly: Neuroprotective activity against serum starvation-induced cell death in human SH-SY5Y cells assessed as increase in cell […] at 20 and 40 uM after 3 days by tetrazolium reduction assay. Type of data set: functional, cell-based.

Turning to `COC(=O)c1cn(-c2ccc3nc(N4CCOCC4)sc3c2)nn1`, the outcome in the data set with SH-SY5Y [1] was inactive. In data set [2], the solubility result is listed as “Insoluble”.
In the case of `CC(C)n1c(=O)c2ccccc2n1Cc1cn(-c2ccc3nc(N4CCOCC4)sc3c2)nn1`, the outcome with SH-SY5Y [3] and in the data set with SH-SY5Y [4] was Active. Moreover, in data set [2] (read-out: solubility), the solubility is greater than 40 µM.
As to `c1ccc(-c2cn(-c3ccc4nc(N5CCOCC5)sc4c3)nn2)cc1`, the outcome in the data set on SH-SY5Y [1] was inactive. Further, the solubility result in data set [2] is “Insoluble”.

The record behind these values is ChEMBL document CHEMBL2069307, “Triazolbenzo[d]thiazoles: efficient synthesis and biological evaluation as neuroprotective agents” (Bioorg Med Chem Lett, 2012).
